Drawing on DBAASP, this text covers MIC for three molecules.

Converted amounts (≈) assume the structure as drawn. “And” between values parts separate entries of the source, which are not always exact repeats. Identical values can stand only once. A value given as a limit tells only on which side of the number the result lay.

What all share (experiment): ≥ marks a high value that may be exact or a test limit, other limits are often not marked, values filed in µg/mL are converted to µM
Test [1] concerns Bacillus subtilis ATCC 6633.
In test [2] the test system is Enterococcus faecium.
In test [3] the test system is Salmonella enterica subsp. enterica serovar Typhimurium ATCC 14028.
Test [4] relates to Escherichia coli ATCC 10536.
Test [5] concerns Streptococcus agalactiae.
The subject of test [6] is Serratia marcescens.
Test [7] has as its system Candida albicans.
Test [8] deals with Escherichia coli ML-35.
Test [9] deals with Bacillus megaterium Bm11.
The subject of test [10] is Staphylococcus aureus.
The subject of test [11] is Escherichia coli D21.
Test [12] concerns Staphylococcus epidermidis ATCC 12228.
In test [13] the test system is Serratia marcescens ATCC 8100.
Test [14] deals with Escherichia coli ATCC 25922.
Test [15] relates to Escherichia coli DH5alpha.
In test [16] the test system is Staphylococcus aureus Cowan 1.
In test [17] the test system is Pseudomonas aeruginosa ATCC 27853.
Test [18] relates to Cryptococcus neoformans.
The test system of test [19] is Staphylococcus aureus ATCC 9144.
Test [20] concerns Staphylococcus aureus ATCC 25923.
Test [21] has as its system Escherichia coli O18:K1:H7 Bort.
Test [22] relates to Enterococcus faecalis.
In test [23] the test system is Aerococcus viridans.
In test [24] the test system is Micrococcus luteus.
For test [25], the system named is Xanthomonas campestris pv. oryzae.
The test system of test [26] is Bacillus subtilis QB935.
Test [27] concerns Alcaligenes faecalis.
Test [28] has as its system Salmonella typhimurium.
Test [29] deals with Escherichia coli 1106.
Test [30] relates to Escherichia coli D22.
The subject of test [31] is Burkholderia cepacia.
In test [32] the test system is Staphylococcus aureus USA 300.
The subject of test [33] is Klebsiella pneumoniae.
The test system of test [34] is Pseudomonas aeruginosa ATCC 82118.
Test [35] deals with Serratia marcescens Db11.
The subject of test [36] is Bacillus megaterium.
Test [37] deals with Enterobacter cloacae beta-12.
The test system of test [38] is Escherichia coli D31.
Test [39] relates to Bacillus thuringiensis.
For test [40], the system named is Pectobacterium carotovorum subsp. carotovorum.
In test [41] the test system is Escherichia coli K-12.
Test [42] concerns Staphylococcus aureus T4/6.
The subject of test [43] is Escherichia coli ATCC 25726.
In test [44] the test system is Staphylococcus aureus 274/08.
Test [45] deals with Klebsiella pneumoniae ATCC 700603.
The subject of test [46] is Candida albicans ATCC 90028.
In test [47] the test system is Staphylococcus aureus V4180.
The subject of test [48] is Staphylococcus aureus 145/08.
Test [49] concerns Staphylococcus aureus S908.
In test [50] the test system is Acinetobacter baumannii I NM8.
In test [51] the test system is Staphylococcus aureus 127/08.
Test [52] deals with Staphylococcus aureus NCTC 8325.

In general, MIC refers to the smallest concentration in the dilution series that meets the test's criterion for growth inhibition. A lower MIC goes with a more susceptible organism. With `CC[C@H](C)[C@H](NC(=O)[C@H](CCCN=C(N)N)NC(=O)[C@@H](NC(=O)[C@@H](NC(=O)[C@@H]1CCCN1C(=O)[C@@H](NC(=O)[C@@H](NC(=O)[C@@H](NC(=O)[C@@H]1CCCN1C(=O)CNC(=O)[C@H](Cc1ccc(O)cc1)NC(=O)[C@H](CCCCN)NC(=O)[C@H](CCCCN)NC(=O)[C@H](Cc1c[nH]c2ccccc12)NC(=O)[C@H](C)NC(=O)[C@H](CCCN=C(N)N)NC(=O)[C@H](CC(C)C)NC(=O)[C@@H](NC(=O)[C@H](CCCCN)NC(=O)[C@H](CCCN=C(N)N)NC(=O)CNC(=O)[C@H](CC(C)C)NC(=O)[C@H](CO)NC(=O)[C@H](CCCN=C(N)N)NC(=O)[C@H](CC(C)C)NC(=O)CNC(=O)CN)[C@@H](C)CC)[C@@H](C)CC)[C@@H](C)CC)C(C)C)[C@@H](C)CC)[C@@H](C)CC)C(=O)NCC(N)=O` [GGLRSLGRKILRAWKKYGPIIVPIIRIG], the MIC in test [1] came to 1.6 µM (≈ 5.01 µg/mL); in test [2], 2.83 µM (≈ 8.86 µg/mL); in test [3], 1 µM (≈ 3.13 µg/mL); in [4], 2.6 µM (≈ 8.14 µg/mL); in [5], 2.83 µM (≈ 8.86 µg/mL); in test [6], 8 µM (≈ 25 µg/mL). In addition, the minimum inhibitory concentration (MIC) in test [7] worked out at 8 µM (≈ 25 µg/mL); in test [8], 2 µM (≈ 6.26 µg/mL); in test [9] it was 2 µM (≈ 6.26 µg/mL); in [10], 2.83 µM (≈ 8.86 µg/mL); in [11], 0.5 µM (≈ 1.57 µg/mL); in test [12], 1 µM (≈ 3.13 µg/mL). Further, the MIC in [13] is 2 µM (≈ 6.26 µg/mL); in test [14], 2 µM (≈ 6.26 µg/mL); in test [15], 2.4 µM (≈ 7.51 µg/mL); in test [16], 1 µM (≈ 3.13 µg/mL); in test [17], 2 µM and > 1 µM; in test [18], 4 µM (≈ 12.5 µg/mL). The MIC in test [19] came to 3 µM (≈ 9.39 µg/mL); in [20] it was 2 µM (≈ 6.26 µg/mL); in [21], 2 µM (≈ 6.26 µg/mL).
In the case of `CSCC[C@H](NC(=O)[C@H](CC(N)=O)NC(=O)[C@@H]1CCCN1C(=O)[C@@H]1CCCN1C(=O)[C@H](CCCNC(=N)N)NC(=O)[C@@H]1CCCN1C(=O)[C@H](CCCNC(=N)N)NC(=O)[C@@H]1CCCN1C(=O)[C@H](CCCNC(=N)N)NC(=O)[C@H](Cc1ccc(O)cc1)NC(=O)[C@H](CC(=O)O)NC(=O)[C@@H]1CCCN1C(=O)[C@H](CCCCN)NC(=O)[C@H](CC(=O)O)NC(=O)[C@@H](N)C(C)C)C(=O)O` [VDKPDYRPRPRPPNM], the MIC in test [22] was at least 200 µM; in test [23], at least 200 µM; in [24], at least 200 µM; in test [25], at least 141 µM; in test [26], at least 200 µM; in test [27], at least 70.7 µM. Also, the MIC in [28] was at least 70.7 µM; in test [29], at least 141 µM; in test [30], at least 70.7 µM; in test [31], at least 100 µM; in [32], at least 100 µM; in [33] it was above 200 µM. Besides, the MIC in [34] is at least 200 µM; in [35] it was at least 200 µM; in test [36], at least 200 µM; in test [10], above 200 µM; in test [37], at least 141 µM; in [38] it was at least 141 µM. Besides, the MIC is at least 200 µM in [39], at least 200 µM in test [40] and at least 100 µM in test [41].
On to `CC(C)C[C@H](NC(=O)[C@H](CC(C)C)NC(=O)[C@H](CC(N)=O)NC(=O)[C@H](CO)NC(=O)CNC(=O)[C@@H](NC(=O)[C@H](CCCCN)NC(=O)[C@H](CC(C)C)NC(=O)CNC(=O)[C@@H](NC(=O)[C@H](CCCCN)NC(=O)[C@H](CC(C)C)NC(=O)[C@H](CC(C)C)NC(=O)[C@H](CO)NC(=O)CNC(=O)[C@H](CC(C)C)NC(=O)[C@H](Cc1ccccc1)NC(=O)CN)[C@@H](C)O)C(C)C)C(N)=O` [GFLGSLLKTGLKVGSNLL], for which the MIC in test [42] was 5 µM (≈ 9.08 µg/mL); in [43], at least 50 µM; in test [44], 5 µM (≈ 9.08 µg/mL); in test [45], 50 µM (≈ 90.8 µg/mL); in test [46], at least 100 µM; in test [47], 5 µM (≈ 9.08 µg/mL). In addition, the MIC stood at 5 µM (≈ 9.08 µg/mL) in test [48]; 5 µM (≈ 9.08 µg/mL) in test [49]; 6 µM (≈ 10.9 µg/mL) in [50]; 50 µM (≈ 90.8 µg/mL) in test [14]; 50 µM (≈ 90.8 µg/mL) in [17]; 5 µM (≈ 9.08 µg/mL) in test [51]. Also, the MIC in test [52] is at least 80 µM.
